# Source: ChEMBL document CHEMBL1201861, “Genomics of Drug Sensitity in Cancer screening data, Wellcome Trust Sanger Institute”
# Columns and labels:
# Assay in all cases: cells
# Format in all cases: functional, cell-based, Homo sapiens
# CPC-N = settings: Homo sapiens, CPC-N;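 note: growth inhibition of CPC-N cells, with a cell viability assay as the readout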
# Description: SANGER: Inhibition of human CPC-N cell growth in a cell viability assay.
# LC4-1 = settings: Homo sapiens, LC4-1;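 note: growth inhibition of LC4-1 cells, read out with a cell viability assay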
# Description: SANGER: Inhibition of human LC4-1 cell growth in a cell viability assay.
# LU-165 = settings: Homo sapiens, LU-165
# Description: SANGER: Inhibition of human LU-165 cell growth in a cell viability assay.
# NCI-H2081 = settings: Homo sapiens, NCI-H2081;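 note: growth inhibition of human NCI-H2081 cells, read out with a cell viability assay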
# Description: SANGER: Inhibition of human NCI-H2081 cell growth in a cell viability assay.
# NCI-H2227 = settings: Homo sapiens, NCI-H2227;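 note: growth inhibition of the human cell line, read out with a cell viability assay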
# Description: SANGER: Inhibition of human NCI-H2227 cell growth in a cell viability assay.
# ARH-77 = settings: Homo sapiens, ARH-77;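 note: growth inhibition of ARH-77 cells, read out by a cell viability assay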
# Description: SANGER: Inhibition of human ARH-77 cell growth in a cell viability assay.
# CA46 = settings: Homo sapiens, CA46;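 note: growth inhibition of human CA46 cells, read out by a cell viability assay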
# Description: SANGER: Inhibition of human CA46 cell growth in a cell viability assay.
# WSU-NHL = settings: Homo sapiens, WSU-NHL;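 note: growth inhibition of human WSU-NHL cells, read out with a cell viability assay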
# Description: SANGER: Inhibition of human WSU-NHL cell growth in a cell viability assay.
# NALM-6 = settings: Homo sapiens, NALM-6;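 note: growth inhibition of NALM-6 cells, read out with a cell viability assay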
# Description: SANGER: Inhibition of human NALM-6 cell growth in a cell viability assay.
# SCLC-21H = settings: Homo sapiens, SCLC-21H;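 note: growth inhibition of cultured human SCLC-21H cells, read out with a cell viability assay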
# Description: SANGER: Inhibition of human SCLC-21H cell growth in a cell viability assay.
Structure (SMILES),IC50 (CPC-N) [nM],IC50 (LC4-1) [nM],IC50 (LU-165) [nM],IC50 (NCI-H2081) [nM],IC50 (NCI-H2227) [nM],IC50 (ARH-77) [nM],IC50 (CA46) [nM],IC50 (WSU-NHL) [nM],IC50 (NALM-6) [nM],IC50 (SCLC-21H) [nM]
C#Cc1cccc(Nc2ncnc3cc(OCCOC)c(OCCOC)cc23)c1 [ERLOTINIB],> 2000,> 2000,> 2000,> 2000,> 2000,> 2000,> 2000,> 2000,,
COc1cc2ncn(-c3cc(OCc4ccccc4S(C)(=O)=O)c(C#N)s3)c2cc1OC [GSK-319347A],> 5000,> 5000,> 5000,> 5000,> 5000,> 5000,> 5000,> 5000,> 5000,> 5000
COc1cc2ncn(-c3cc(OCc4ccccc4C(F)(F)F)c(C(N)=O)s3)c2cc1OC [GW843682X],41.2,54.5,> 256,> 256,,58.1,> 256,> 256,24.5,90.2
CC(=O)O[C@H]1C(=O)[C@@]2(C)[C@H]([C@H](OC(=O)c3ccccc3)[C@]3(O)C[C@H](OC(=O)[C@H](O)[C@@H](NC(=O)c4ccccc4)c4ccccc4)C(C)=C1C3(C)C)[C@]1(OC(C)=O)CO[C@@H]1C[C@@H]2O [PACLITAXEL],30.8,43.5,> 102,> 102,,26,> 102,> 102,12.1,58.8
N[C@@H](CSC(c1ccccc1)(c1ccccc1)c1ccccc1)C(=O)O [S-TRITYL-L-CYSTEINE],2460,2020,> 5120,> 5120,,3540,> 5120,> 5120,676,2830
CC[C@H](CO)Nc1nc(NCc2ccccc2)c2ncn(C(C)C)c2n1 [SELICICLIB],> 16000,> 16000,> 16000,> 16000,> 16000,> 16000,> 16000,> 16000,> 16000,> 16000
CCN(CC)CCNC(=O)c1c(C)[nH]c(/C=C2\C(=O)Nc3ccc(F)cc32)c1C [SUNITINIB],> 8000,4380,> 8000,> 8000,,7540,7580,> 8000,2900,> 8000
